Assay results as given in ChEMBL document CHEMBL1201862, “PubChem BioAssay data set” (2004).
One block for each compound: values may come before it. Activity calls are given as the source filed them.

Legend:
[1] = target: T1, Caspase-6 (Homo sapiens, UniProt P55212); test: inhibition of CASP6 peptide cleavage – biochemical, VEID-R110 fluorescence, cherry-pick, dose response (AID 720632)
T1 sequence (P55212 whole entry): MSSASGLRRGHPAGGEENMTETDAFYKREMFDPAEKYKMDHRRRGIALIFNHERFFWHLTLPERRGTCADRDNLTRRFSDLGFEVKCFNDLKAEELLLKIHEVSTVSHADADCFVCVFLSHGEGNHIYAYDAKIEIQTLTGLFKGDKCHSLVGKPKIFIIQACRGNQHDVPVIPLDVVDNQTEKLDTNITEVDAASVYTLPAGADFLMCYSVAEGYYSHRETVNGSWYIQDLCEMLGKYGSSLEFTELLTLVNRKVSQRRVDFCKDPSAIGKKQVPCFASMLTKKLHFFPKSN

[2] = target: Caspase-7 (Homo sapiens, UniProt P55210); test: caspase-7 enzyme inhibition, selectivity check – biochemical, DEVD-R110 fluorescence, cherry-pick, selectivity assay for caspase-6 inhibitor project, dose response (AID 743295); assay type: functional
[3] = target: T2, Apoptotic protease-activating factor 1 (Homo sapiens, UniProt O14727); assay type: functional
T2 sequence (O14727 whole entry): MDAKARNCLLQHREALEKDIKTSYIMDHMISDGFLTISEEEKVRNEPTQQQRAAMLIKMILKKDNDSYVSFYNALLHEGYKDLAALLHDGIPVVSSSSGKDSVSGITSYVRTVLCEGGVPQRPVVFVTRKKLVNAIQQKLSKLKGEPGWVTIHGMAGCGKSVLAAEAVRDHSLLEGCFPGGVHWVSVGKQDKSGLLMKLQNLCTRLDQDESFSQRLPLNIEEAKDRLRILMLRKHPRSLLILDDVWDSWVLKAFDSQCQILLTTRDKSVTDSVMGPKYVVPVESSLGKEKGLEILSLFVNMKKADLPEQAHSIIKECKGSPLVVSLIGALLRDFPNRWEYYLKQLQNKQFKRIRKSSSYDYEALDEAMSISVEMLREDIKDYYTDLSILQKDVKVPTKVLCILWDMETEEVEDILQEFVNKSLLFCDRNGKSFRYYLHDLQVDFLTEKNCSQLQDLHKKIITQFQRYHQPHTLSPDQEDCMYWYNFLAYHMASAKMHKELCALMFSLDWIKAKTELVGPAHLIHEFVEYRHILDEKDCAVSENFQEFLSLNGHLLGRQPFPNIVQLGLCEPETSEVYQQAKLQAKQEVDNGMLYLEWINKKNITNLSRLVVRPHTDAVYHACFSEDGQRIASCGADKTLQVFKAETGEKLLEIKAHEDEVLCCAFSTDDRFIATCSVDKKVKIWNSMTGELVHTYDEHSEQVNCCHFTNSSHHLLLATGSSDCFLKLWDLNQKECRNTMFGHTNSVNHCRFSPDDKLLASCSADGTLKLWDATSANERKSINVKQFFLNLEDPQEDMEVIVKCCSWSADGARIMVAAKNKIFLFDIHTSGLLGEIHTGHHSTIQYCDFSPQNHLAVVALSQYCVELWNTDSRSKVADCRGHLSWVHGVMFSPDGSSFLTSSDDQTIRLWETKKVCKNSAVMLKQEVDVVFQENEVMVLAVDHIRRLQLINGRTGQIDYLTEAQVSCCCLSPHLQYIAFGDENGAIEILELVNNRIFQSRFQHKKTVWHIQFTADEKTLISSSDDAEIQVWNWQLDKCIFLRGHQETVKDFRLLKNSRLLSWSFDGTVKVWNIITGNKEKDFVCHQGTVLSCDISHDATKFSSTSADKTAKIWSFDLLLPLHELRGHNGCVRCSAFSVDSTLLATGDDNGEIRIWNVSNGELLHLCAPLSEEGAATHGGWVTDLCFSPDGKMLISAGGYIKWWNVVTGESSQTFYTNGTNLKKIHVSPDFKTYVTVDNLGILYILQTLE

[4] = target: T3, Mannose-6-phosphate isomerase (Homo sapiens, UniProt P34949); test: MPI inhibition at elevated mannose 6-phosphate – biochemical, fluorescence intensity, high mannose 6-phosphate, primary screen (AID 1220)
T3 sequence (P34949 whole entry): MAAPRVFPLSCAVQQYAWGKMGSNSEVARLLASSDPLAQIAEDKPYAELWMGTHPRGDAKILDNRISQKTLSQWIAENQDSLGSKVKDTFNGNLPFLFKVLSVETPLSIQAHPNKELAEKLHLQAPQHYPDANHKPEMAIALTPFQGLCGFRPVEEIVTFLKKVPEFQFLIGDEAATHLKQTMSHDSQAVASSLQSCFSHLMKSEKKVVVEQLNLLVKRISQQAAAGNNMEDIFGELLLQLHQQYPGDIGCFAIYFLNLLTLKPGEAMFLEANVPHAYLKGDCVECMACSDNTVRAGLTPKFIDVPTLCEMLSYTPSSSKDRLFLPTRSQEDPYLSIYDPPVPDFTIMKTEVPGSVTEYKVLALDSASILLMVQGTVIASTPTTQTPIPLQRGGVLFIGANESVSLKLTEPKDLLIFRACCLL

[5] = target: Caspase-8 (Homo sapiens, UniProt Q14790); test: inhibitors of purified CASP8 protease – biochemical, Z-IETD-R110 fluorescence, cherry-picked samples, selectivity assay for caspase-6 inhibitor project, dose response (AID 743294)
[6] = target: Caspase-9 (Homo sapiens, UniProt P55211); test: inhibitors of purified CASP9 protease – biochemical, fluorescence, plate reader, cherry-picked samples, selectivity assay for caspase-6 inhibitor project, dose response (AID 743293)
[7] = target: Tyrosyl-DNA phosphodiesterase 2 (Homo sapiens, UniProt O95551); test: potency against TDP2 phosphodiesterase activity – biochemical, epi absorbance, IC50, dose response (AID 743297)
[8] = target: Glutathione-S-transferase (Schistosoma japonicum, UniProt Q26513); test: GST-antibody interaction or FRET quenching – biochemical, TR-FRET, artefact control for Vif-APOBEC3G degradation inhibitor project, dose response (AID 1117362); assay type: functional
[9] = target: Genome polyprotein (dengue virus type 2, UniProt P29990); test: flavivirus cap methylation enzyme inhibition – biochemical, confirmation dose response, primary screen (AID 588689); assay type: functional
[10] = target: Induced myeloid leukemia cell differentiation protein Mcl-1 (Homo sapiens, UniProt Q07820); assay type: functional
[11] = target: RNA-editing ligase 1, mitochondrial (Trypanosoma brucei brucei, UniProt P86926); test: inhibition of trypanosome RNA editing ligase – biochemical, fluorescence, Trypanosoma brucei, dose response (AID 1117295); assay type: functional
[12] = Luminescence-based cell-based high throughput dose response assay to identify activators of the DAF-12 from the parasite S. stercoralis (ssDAF-12).; assay type: functional
[13] = target: T4, Estrogen receptor (Homo sapiens, UniProt P03372); test: ERα coactivator recruitment enhancers – biochemical, TR-FRET, ERα LBD, dose response (AID 737)
T4 sequence (P03372 whole entry): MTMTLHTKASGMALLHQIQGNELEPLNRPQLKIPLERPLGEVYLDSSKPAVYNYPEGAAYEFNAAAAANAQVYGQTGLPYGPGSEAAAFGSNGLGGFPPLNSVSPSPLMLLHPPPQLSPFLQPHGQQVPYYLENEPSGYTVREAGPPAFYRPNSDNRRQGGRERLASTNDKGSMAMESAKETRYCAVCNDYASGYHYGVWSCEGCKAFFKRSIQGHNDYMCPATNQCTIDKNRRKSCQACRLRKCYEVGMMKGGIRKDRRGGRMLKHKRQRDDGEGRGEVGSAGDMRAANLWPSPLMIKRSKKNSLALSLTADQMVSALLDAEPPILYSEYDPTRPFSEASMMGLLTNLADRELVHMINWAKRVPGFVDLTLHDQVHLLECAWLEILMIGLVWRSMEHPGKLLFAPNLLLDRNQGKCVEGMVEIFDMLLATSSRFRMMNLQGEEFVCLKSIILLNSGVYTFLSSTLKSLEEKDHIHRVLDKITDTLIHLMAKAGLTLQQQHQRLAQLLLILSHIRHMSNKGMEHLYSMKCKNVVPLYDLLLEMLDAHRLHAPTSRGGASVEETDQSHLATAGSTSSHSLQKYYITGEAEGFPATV

[14] = target: Protein-tyrosine kinase 2-beta (Homo sapiens, UniProt Q14289);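 note: potency of inhibitors of PYK2 kinase phosphorylation of poly-GT substrate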
[15] = test system: HT-1080; test: HT1080 cell viability loss – fluorescence readout (AID 620); assay type: functional, cell-based; conditions: Homo sapiens
[16] = target: T5, Oxysterols receptor LXR-beta (Homo sapiens, UniProt P55055); test: LXR agonists, Gal4 luciferase reporter, dose response, counter-screen for ssDAF-12 agonist project, cell-based, luminescence, HEK293, S. stercoralis campaign (AID 720737); assay type: functional; conditions: read-out: IC50 (the source's name)
T5 sequence (P55055 whole entry): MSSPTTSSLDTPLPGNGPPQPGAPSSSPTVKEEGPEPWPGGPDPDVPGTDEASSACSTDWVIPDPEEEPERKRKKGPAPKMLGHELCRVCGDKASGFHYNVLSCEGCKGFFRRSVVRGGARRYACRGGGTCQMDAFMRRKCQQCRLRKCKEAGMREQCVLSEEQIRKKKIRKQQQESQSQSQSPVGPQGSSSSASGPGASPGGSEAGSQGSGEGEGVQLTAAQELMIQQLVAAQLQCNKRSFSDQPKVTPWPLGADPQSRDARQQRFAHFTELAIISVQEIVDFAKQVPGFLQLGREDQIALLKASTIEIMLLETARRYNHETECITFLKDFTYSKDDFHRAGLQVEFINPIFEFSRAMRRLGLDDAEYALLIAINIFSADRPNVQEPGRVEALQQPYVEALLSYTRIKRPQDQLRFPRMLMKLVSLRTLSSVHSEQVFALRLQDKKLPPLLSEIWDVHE

[17] = cells
[18] = target: T5, Oxysterols receptor LXR-beta; assay type: functional, cell-based
[19] = target: Luciferin 4-monooxygenase (Photinus pyralis, UniProt P08659); test: Counter Screen for Luciferase-based Assay Positives. [Related pubchem assays: 620, 618, 411 ]
[20] = target: T6, Fibrinogen beta chain (Homo sapiens, UniProt P02675); test: Fluorescence polarization-based biochemical high throughput dose response assay to identify inhibitors that disrupt the binding of a cyclic peptide (Tn6) to the fibrin proteolytic product D-Dimer and fragment E complex [DD(E )].
[21] = target: T6, Fibrinogen beta chain; test: Fluorescence polarization-based biochemical high throughput dose response assay to identify inhibitors that disrupt the binding of a cyclic peptide (Tn7) to the fibrin proteolytic product D-Dimer and fragment E complex [DD(E )].
[22] = cytotoxicity in MITF-independent A375 cells – cell-based, CellTiter-Glo luminescence, dry powder, set 9, counter-screen for MITF modulator project, dose response (AID 651591); assay type: functional; conditions: A-375
[23] = MITF Orthogonal Assay: SK-MEL-5 CTG Assay Measured in Cell-Based System Using Plate Reader - 2084-02_Inhibitor_Dose_DryPowder_Activity_Set7.; assay type: functional
[24] = inhibitors of TRPM1-promoter reporter in SK-MEL-5 – cell-based, luciferase, dry powder, set 9, MITF inhibitor project, dose response (AID 651588); assay type: functional
[25] = MITF: Counter assay: A375 proliferation Measured in Cell-Based System Using Plate Reader - 2084-03_Inhibitor_Dose_DryPowder_Activity_Set8.; assay type: functional; conditions: A-375
[26] = growth inhibition of SK-MEL-5 melanoma cells – cell-based, CellTiter-Glo luminescence, dry powder, set 8, orthogonal assay for MITF inhibitor project, dose response (AID 651586); assay type: functional
[27] = MITF Orthogonal Assay: MALME3 CTG Assay Measured in Cell-Based System Using Plate Reader - 2084-04_Inhibitor_Dose_DryPowder_Activity_Set6.; assay type: functional; conditions: MALME-3
[28] = growth inhibition of MALME3 cells – cell-based, CellTiter-Glo luminescence, dry powder, set 5, orthogonal assay for MITF inhibitor project, dose response (AID 651584); assay type: functional; conditions: MALME-3
[29] = inhibitors of TRPM1-promoter reporter in SK-MEL-5 – cell-based, luciferase, dry powder, set 8, MITF inhibitor project, dose response (AID 624430); assay type: functional

T6 sequence (P02675 whole entry, the tested form may be a part): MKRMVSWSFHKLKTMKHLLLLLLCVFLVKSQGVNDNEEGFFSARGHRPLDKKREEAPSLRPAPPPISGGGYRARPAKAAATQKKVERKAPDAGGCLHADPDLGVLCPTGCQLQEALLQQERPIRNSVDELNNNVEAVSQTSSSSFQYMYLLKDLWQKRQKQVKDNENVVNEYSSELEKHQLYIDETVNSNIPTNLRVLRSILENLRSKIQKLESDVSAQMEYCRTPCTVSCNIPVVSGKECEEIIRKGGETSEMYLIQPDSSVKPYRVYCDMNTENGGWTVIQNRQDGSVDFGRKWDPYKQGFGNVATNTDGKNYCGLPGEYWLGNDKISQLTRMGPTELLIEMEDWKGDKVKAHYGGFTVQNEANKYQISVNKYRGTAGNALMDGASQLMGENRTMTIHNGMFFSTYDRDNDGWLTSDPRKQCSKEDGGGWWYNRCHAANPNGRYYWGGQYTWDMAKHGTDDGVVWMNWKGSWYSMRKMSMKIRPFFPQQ
Sequence of Caspase-7 (P55210 24-198 limits assumed): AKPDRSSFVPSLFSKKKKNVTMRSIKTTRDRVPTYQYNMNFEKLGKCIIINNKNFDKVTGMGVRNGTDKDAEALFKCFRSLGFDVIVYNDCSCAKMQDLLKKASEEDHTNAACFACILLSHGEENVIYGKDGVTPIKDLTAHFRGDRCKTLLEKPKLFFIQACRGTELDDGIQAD
Sequence of Caspase-7 (P55210 207-303 limits assumed): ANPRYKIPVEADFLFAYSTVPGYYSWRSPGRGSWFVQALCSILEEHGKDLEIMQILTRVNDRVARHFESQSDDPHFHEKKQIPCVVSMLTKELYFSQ
Sequence of Protein-tyrosine kinase 2-beta (Q14289 whole entry): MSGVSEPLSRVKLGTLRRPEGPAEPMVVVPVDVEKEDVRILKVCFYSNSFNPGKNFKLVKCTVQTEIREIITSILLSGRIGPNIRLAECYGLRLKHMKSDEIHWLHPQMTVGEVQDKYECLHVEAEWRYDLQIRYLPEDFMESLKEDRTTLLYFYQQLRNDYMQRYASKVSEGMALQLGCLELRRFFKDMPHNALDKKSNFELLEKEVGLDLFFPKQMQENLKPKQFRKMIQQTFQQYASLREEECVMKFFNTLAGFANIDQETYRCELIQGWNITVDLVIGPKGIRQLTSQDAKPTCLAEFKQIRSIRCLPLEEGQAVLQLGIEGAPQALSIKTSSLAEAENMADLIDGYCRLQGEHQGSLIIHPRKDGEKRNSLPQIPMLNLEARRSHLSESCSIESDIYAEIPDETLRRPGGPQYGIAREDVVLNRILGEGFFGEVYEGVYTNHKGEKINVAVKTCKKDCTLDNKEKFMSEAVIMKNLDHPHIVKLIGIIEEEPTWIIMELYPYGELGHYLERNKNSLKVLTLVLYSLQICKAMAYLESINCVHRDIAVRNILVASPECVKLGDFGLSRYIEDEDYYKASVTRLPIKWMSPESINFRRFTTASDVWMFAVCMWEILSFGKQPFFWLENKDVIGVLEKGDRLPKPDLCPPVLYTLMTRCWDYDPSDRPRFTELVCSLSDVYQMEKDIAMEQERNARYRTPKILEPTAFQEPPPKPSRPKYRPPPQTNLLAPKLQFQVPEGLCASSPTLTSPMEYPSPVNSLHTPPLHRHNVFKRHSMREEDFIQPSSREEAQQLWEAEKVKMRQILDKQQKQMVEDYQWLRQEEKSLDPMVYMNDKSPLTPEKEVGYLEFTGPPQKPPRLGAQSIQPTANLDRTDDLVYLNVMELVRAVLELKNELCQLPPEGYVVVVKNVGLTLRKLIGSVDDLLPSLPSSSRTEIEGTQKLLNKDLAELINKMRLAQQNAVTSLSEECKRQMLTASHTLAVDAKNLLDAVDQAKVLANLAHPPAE
Sequence of Genome polyprotein (P29990 2492-3391 limits assumed): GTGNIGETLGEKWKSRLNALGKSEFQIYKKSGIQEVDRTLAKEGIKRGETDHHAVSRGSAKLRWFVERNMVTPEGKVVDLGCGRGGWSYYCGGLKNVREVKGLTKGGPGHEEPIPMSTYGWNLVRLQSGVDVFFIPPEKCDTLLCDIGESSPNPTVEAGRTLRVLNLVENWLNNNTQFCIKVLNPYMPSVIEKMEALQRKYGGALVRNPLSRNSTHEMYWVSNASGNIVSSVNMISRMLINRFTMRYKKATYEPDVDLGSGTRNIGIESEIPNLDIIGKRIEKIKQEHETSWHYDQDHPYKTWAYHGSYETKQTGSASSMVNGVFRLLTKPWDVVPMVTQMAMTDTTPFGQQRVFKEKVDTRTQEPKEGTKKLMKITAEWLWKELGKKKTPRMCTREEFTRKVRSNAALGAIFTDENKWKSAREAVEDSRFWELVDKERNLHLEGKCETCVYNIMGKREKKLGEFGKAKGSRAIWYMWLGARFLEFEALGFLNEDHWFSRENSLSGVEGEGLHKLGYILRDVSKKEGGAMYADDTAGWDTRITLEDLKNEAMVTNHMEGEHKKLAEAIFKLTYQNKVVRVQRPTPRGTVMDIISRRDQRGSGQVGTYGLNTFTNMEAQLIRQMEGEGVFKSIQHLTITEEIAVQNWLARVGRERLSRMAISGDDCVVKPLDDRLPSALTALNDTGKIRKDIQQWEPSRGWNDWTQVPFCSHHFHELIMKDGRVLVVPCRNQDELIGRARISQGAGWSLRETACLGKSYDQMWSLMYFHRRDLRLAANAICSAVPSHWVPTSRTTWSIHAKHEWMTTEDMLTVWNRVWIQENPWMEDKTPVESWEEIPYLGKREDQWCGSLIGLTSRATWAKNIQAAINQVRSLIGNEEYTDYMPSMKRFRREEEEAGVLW
Sequence of RNA-editing ligase 1, mitochondrial (P86926 whole entry): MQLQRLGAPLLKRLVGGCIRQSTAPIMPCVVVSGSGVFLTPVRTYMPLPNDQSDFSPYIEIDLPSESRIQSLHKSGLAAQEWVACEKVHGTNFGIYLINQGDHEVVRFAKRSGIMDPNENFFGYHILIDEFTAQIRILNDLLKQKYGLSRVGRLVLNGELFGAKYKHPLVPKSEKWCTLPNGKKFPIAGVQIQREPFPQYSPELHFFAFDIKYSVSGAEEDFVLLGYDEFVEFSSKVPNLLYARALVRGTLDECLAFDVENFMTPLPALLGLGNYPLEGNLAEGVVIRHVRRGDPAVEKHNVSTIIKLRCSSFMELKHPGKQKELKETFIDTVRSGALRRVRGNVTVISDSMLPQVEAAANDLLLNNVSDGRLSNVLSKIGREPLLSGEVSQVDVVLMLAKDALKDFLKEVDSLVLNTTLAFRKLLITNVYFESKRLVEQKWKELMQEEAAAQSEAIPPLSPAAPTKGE
Sequence of Caspase-8 (Q14790 217-374 limits assumed): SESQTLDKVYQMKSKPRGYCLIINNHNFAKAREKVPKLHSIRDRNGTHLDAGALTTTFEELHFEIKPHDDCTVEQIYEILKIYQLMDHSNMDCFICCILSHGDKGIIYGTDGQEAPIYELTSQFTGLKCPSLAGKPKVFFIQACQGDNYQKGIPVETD
Sequence of Caspase-8 (Q14790 385-479 limits assumed): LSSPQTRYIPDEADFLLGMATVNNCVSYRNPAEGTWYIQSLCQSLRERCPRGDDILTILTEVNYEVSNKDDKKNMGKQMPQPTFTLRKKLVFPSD
Sequence of Induced myeloid leukemia cell differentiation protein Mcl-1 (Q07820 whole entry): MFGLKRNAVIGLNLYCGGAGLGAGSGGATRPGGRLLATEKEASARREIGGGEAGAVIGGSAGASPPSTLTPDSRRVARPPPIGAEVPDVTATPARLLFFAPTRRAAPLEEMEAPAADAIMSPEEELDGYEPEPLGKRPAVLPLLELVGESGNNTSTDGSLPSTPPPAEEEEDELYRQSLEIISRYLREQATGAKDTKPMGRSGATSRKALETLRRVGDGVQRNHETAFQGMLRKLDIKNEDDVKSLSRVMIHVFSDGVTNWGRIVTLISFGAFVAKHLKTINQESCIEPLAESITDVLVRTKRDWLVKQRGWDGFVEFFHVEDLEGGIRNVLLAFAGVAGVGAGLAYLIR
Sequence of Caspase-9 (P55211 1-315 limits assumed): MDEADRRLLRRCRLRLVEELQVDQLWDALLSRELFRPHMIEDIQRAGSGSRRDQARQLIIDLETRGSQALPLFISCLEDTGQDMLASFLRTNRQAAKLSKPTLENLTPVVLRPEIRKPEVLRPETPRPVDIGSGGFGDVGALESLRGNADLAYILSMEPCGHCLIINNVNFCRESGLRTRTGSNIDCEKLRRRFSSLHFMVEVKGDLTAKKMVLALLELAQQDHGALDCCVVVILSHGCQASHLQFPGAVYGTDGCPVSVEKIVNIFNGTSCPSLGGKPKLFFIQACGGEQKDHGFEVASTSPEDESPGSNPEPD
Sequence of Caspase-9 (P55211 331-416 limits assumed): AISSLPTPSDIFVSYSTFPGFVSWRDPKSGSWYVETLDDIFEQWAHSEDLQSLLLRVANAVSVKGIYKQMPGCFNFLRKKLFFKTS
Sequence of Luciferin 4-monooxygenase (P08659 whole entry, the tested form may be a part): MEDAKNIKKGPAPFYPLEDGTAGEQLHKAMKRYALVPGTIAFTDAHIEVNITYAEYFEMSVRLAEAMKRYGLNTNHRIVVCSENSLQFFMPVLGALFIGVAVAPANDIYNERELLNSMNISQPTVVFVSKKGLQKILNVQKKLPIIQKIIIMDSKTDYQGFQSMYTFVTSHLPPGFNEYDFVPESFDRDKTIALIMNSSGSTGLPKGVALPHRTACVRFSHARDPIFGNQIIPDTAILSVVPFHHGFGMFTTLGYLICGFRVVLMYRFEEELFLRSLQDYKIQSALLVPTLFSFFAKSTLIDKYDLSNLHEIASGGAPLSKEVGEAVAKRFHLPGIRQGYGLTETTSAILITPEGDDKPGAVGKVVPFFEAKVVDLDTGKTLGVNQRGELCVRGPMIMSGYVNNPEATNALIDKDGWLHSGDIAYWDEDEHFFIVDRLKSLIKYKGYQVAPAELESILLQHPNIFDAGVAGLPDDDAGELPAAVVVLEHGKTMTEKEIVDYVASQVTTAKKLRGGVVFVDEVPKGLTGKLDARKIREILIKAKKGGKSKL
Sequence of Glutathione-S-transferase (Q26513 whole entry): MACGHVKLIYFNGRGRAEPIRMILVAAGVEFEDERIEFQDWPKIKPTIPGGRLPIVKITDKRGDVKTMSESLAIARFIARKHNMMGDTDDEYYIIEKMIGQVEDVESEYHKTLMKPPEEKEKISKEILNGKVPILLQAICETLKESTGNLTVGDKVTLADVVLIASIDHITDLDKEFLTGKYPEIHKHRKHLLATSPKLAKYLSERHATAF

SMILES: O=C1C(c2ccnc3ccccc23)=C(O)c2ccccc21
IC50 [12]: > 67.5 µM (inactive)
EC50 [13]: 6.74 µM (active)
IC50 [14]: 3.11 µM (active)
EC50 [15]: > 50 µM (not active)
EC50 [16]: > 67.5 µM (inactive)
EC50 [17]: > 67.5 µM (inactive)
EC50 [18]: > 67.5 µM (inactive)
EC50 [19]: 0.78 µM (active)

SMILES: O=C(COC(=O)c1cc(-c2cccc3ccccc23)nc2ccccc12)NC1CCS(=O)(=O)C1 (stereo not given)
IC50 [20]: > 83.3 µM (inactive)
IC50 [21]: > 83.3 µM (inactive)

SMILES: O=C1C(Nc2cccc(Cl)c2)=C(N2CCCC2)C(=O)c2ccccc21
AC50 [22]: > 70 µM (inactive)
AC50 [23]: 5.52 µM (active)
AC50 [24]: 46.8 µM (active)
AC50 [25]: > 70 µM (inactive)
AC50 [26]: > 70 µM (inactive)
AC50 [27]: > 70 µM (inactive)
AC50 [28]: > 70 µM (inactive)
AC50 [29]: 8.39 µM (active)

Next, values leading:

AC50 [1]: 4.1 µM (active)
AC50 [2]: 25.5 µM (active)
IC50 [3]: 15.8 µM (active)
IC50 [4]: > 50 µM (not active)
AC50 [5]: > 70 µM (inactive)
AC50 [6]: 53.6 µM (active)
SMILES: CCOc1c(O)ccc(/C=C2\SC(=S)NC2=O)c1[N+](=O)[O-]

AC50 [1]: 13.1 µM (active)
IC50 [7]: > 128 µM (inactive)
IC50 [8]: > 100 µM (active)
IC50 [9]: 86.2 µM (active)
IC50 [10]: 3.45 µM (not active)
IC50 [11]: 28.4 µM (inactive)
SMILES: O=C(NCCCO)c1ccc2nc(-c3ccco3)c(-c3ccco3)nc2c1
